The structures appear in SMILES notation.

Broadly, the MRT is a mean duration of stay, worked out from the concentration-time curve. For orientation: half-life means how long it takes for the measured level to halve. The low end stands for rapid decline, the high end for slow decline. Usually clearance stands for the volume of plasma or blood freed of the substance per unit of time. Lower therefore signals inefficient removal. For orientation: Cmax means the maximum level reached in the sampled fluid or tissue. In general, Tmax refers to the time from dosing to the highest level.

The nature of this series: In vivo pharmacokinetic experiment in rats. The note with it: SD rats. The method, then: Healthy male SD rats were randomly divided into groups with 3 rats in each group, and the test compounds were administrated intragastrically or by intravenous injection. See Table 8 below for specific arrangements:
Each test compound was dissolved in physiological saline to prepare a certain concentration of solution for administration.
One day before administration, the rats were fasted and allowed to drink freely for 12-14 h. The rats were fed 4 h after administration. 0.030 mL of blood was took from each animal each time through the orbit, and anticoagulated with EDTAK2 anticoagulation. The collection time points were as follows: in PO group, 5 min, 10 min, 15 min, 30 min, 1 h, 2 h, 4 h, 6 h, 8 h, 24 h after administration of test substance; in IV group, 2 min, 5 min, 15 min, 30 min, 1 h, 2 h, 4 h, 6 h, 8 h, 24 h after administration of test substance. After blood samples were collected, they were placed on ice and centrifuged to separate the plasma within 30 minutes (centrifugation conditions: 5000 rpm, 10 minutes, 4° C.). The sample were stored at −80° C. before analysis.

Setting [1] is: male, rat, iv, 5 mg/kg i.v., plasma.
The mark [2] stands for this setting: male, rat, po, 20 mg/kg p.o., plasma.

On to `Cl.N[C@]1(c2ccc(C(F)(F)F)cc2)CCC[C@H](O)C1=O` [Compound 51, (2S,6S)-2-amino-6-hydroxy-2-(4-(trifluoromethyl)phenyl)cyclohexane-1-one hydrochloride], for which, under “5 mg/kg i.v., plasma”, the AUC0-t was determined as 19871 ngh/mL and the “AUC0-∞” value amounted to 20688 ngh/mL. For the same molecule, under “20 mg/kg p.o.”, the F amounted to 86%. Besides, under “20 mg/kg p.o., plasma”, the AUC0-t was determined as 68383 ngh/mL and the “AUC0-∞” value was determined as 70298 ngh/mL. Under setting [1], this molecule gave an MRT of 6.15 h and a half-life of 5.6 h. For the same molecule, under “male, rat, plasma, iv, 5 mg/kg i.v.”, the clearance is 4.03 mL/min/kg. Moreover, the Vd (male, rat, plasma, iv, 5 mg/kg i.v., read-out: Vss) was 1.49 L/kg. Further, under setting [2], the Cmax stood at 9350 ng/mL, the MRT worked out at 6.21 h, the Tmax was 0.33 h and the half-life was 4.74 h.

Source of the values: patent US12351565B2, “Aromatic compound and preparation method therefor and use thereof” (SHANGHAI JIANHE PHARMACEUTICAL & TECHNOLOGY CO. LTD., priority 2018, dated 2025).
